The results in this text go back to article PMC8853709, “Synthesis, computational studies, tyrosinase inhibitory kinetics and antimelanogenic activity of hydroxy substituted 2-[(4-acetylphenyl)amino]-2-oxoethyl derivatives” (Journal of Enzyme Inhibition and Medicinal Chemistry, 2019).

The target of series [1] is T1, mushroom tyrosinase (EC 1.14.18.1) (Agaricus bisporus, UniProt C7FF04).
T1 construct: purchased Sigma Chemical Co., ST; Louis, MO
The experiment in a line: Mushroom tyrosinase inhibition assay (L-DOPA, dopachrome absorbance). The format is biochemical, Agaricusbisporus. How it is done:
The mushroom tyrosinase (EC 1.14.18.1) (Sigma Chemical Co., ST. Louis, MO) was used for in vitro bioassays as described previously with some modifications[39]^,[40]. Briefly, 140 µL of phosphate buffer (20 mM, pH 6.8), 20 µL of mushroom tyrosinase (30 U/mL) and 20 µL of the inhibitor solution were placed in the wells of a 96-well micro plate. After pre-incubation for 10 min at room temperature, 20 µL of L-DOPA (3,4-dihydroxyphenylalanine) (0.85 mM) was added and the plate was further incubated at 25 °C for 20 min. Subsequently the absorbance of dopachrome was measured at 492 nm using a micro plate reader (OPTI Max, Tunable). Kojic acid was used as a reference inhibitor and for negative tyrosinase inhibitor phosphate buffer was used instead of the inhibitor solution. The extent of inhibition by the test compounds was expressed as the percentage of concentration necessary to achieve 50% inhibition (IC50). Each concentration was analysed in three independent experiments run in triplicate. The IC50 values were determined by the data analysis and graphing software Origin 8.6, 64-bit.

Series [2] relates to murine melanoma (B16F10) cells. The experiment in a line: Melanin content measurement. The format is cell-based. On the procedure: For melanin measurement, melanoma (1.5 × 10^5) cells were seeded in cell culture plates for 24 h at 37 °C and 5% CO2incubator. Then cells were incubated with various concentrations of 5c in cell culture medium for further 24 h. Later, assay for melanin measurement was performed following already reported method. Briefly, the cells were trypsinised and centrifuged for 5 min at 1000 rpm. The cell pellet was dissolved in 1 N NaOH at 60 °C for 1 h and melanin content was measured spectrophotometrically at 405 nm wavelengths using a microplate reader (BioTek, synergy HT, Winooski, VT).

Series [3] has as its target T2, mushroom tyrosinase (Agaricus bisporus, UniProt C7FF04).
T2 construct: purchased Sigma Chemical Co., ST; Louis, MO
Put plainly: Kinetic analysis of the inhibition of mushroom tyrosinase (Lineweaver–Burk, Dixon, enzyme concentration plots). In kind it is biochemical, Agaricusbisporus. The settings on record: for type of inhibition (Lineweaver–Burk plot) / Ki: diphenolase activity, L-DOPA; for Ki: read-out: dissociation constant Ki (Dixon plot); for mode of binding (reversibility of enzyme–inhibitor complex): remaining enzyme activity versus enzyme concentration 1.25, 2.5 and 5 µg/mL. How it is done: To understand the mechanism of mushroom tyrosinase inhibition by compounds 5c and 5d, kinetic studies were conducted. […] Enzyme inhibition kinetics was analysed by Lineweaver–Burk plot and Dixon plots to determine the type of inhibition and inhibition constant (KI).
The inhibitory mechanism of mushroom tyrosinase by compounds 5c (in concentrations: 0.0, 0.0011, 0.0022, 0.0045, 0.0090 and 0.018 µM) and 5d (in concentrations: 0.0, 1.75, 3.5, 7.0, 14, 28 and 56 µM) were investigated.
A series of experiments were performed to determine the inhibition kinetics by following method[41]^,[42]. Inhibitor 5c with concentrations […], 0.0022, 0.0045, 0.009, 0.018 µM and 5d with concentrations 0.0, 1.75, 3.5, 7, 14 and 28 µM, respectively, were used. Substrate L-DOPA concentration was among 0.0625–2 mM in all kinetic study. Pre-incubation and measurement time was the same as discussed in mushroom tyrosinase inhibition assay protocol. The formation of DOPAchrome was continuously monitored at 475 nm for 5 min at a 30 s interval in the microplate reader after addition of enzyme. The inhibition type on the enzyme was assayed by Lineweaver–Burk plots of inverse of velocities (1/V) versus inverse of substrate concentration 1/[S] mM^−1, and the inhibition constant Ki was determined by the Dixon plot of 1/V versus inhibitor concentrations.

Series [4] relates to murine melanoma (B16F10) cells. Put plainly: MTT cell viability assay and cell morphology. The format is cell-based. The note with it: 24 h. On the procedure:
(§1) To test the safety level of 5c compound, MTT assay (3-(4,5-dimethylthiazol-2-yl)-2,5-diphenyltetrazolium Bromide) was performed. The murine melanoma (B16F10) cells (1.5 × 10^5 cells/ml) were seeded in 24 well plates (SPL Korea) with DMEM medium at 37 °C and 5% CO2 incubator. Test compound 5c was dissolved in DMSO and diluted with culture medium to get the final concentrations of 0 (control), 6, 12 and 24 µg/ml, and then added to the cells for 24 h further incubation. The MTT assay was then conducted, and results were calculated in percentage of control. In addition, cellular images were taken by inverted fluorescent microscope (Nikon, ECLIPSE, Tokyo, Japan) to access the 5c effect on cell morphology.

Series [5] is described as follows: MTT cell viability assay and cell morphology. In kind it is cell-based, murine. The note with it: mouse, B16F10 murine melanoma cells, B16F10, 24 µg/ml, read-out: toxic effect in MTT cell viability assay, compared to control normalized to 100%. How it is done:
as §1

Setting [6] is: L-DOPA substrate, pH 6.8, 25 °C, read-out: Mushroom tyrosinase inhibition IC50.

Entries after “also recorded” stand apart in the source; their conditions may differ. Like-named read-outs stand apart in the source and are kept apart here.

T1 sequence (C7FF04 2-392): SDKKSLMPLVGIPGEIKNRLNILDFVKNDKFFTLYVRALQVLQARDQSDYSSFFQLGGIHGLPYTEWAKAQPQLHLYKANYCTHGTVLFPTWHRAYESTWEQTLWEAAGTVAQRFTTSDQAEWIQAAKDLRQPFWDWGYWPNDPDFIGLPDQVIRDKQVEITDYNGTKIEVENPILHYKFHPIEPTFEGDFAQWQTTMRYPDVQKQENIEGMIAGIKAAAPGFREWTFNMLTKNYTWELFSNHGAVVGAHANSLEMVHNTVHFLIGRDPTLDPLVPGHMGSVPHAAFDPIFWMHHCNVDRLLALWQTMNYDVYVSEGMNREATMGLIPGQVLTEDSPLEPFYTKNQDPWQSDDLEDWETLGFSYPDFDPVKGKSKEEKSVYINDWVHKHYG
T2 sequence (C7FF04 2-392): as above

In turn, `CC(=O)c1ccc(NC(=O)CCl)cc1` [Compound 1] registered an IC50 in series [1] of 54.5 ± 3.1 µM.

Molecule `CC(=O)c1ccc(NC(=O)COC(=O)c2cccc(O)c2)cc1` [Compound 3a, 2-[(4-Acetylphenyl)amino]-2-oxoethyl 3-hydroxybenzoate] yielded an IC50 in series [1] of 325 ± 16.9 µM.

`CC(=O)c1ccc(NC(=O)COC(=O)c2ccc(O)cc2)cc1` [Compound 3b, 2-[(4-Acetylphenyl)amino]-2-oxoethyl 4-hydroxybenzoate]: the IC50 in series [1] was found to be 319 ± 31.9 µM.

As to `CC(=O)c1ccc(NC(=O)COC(=O)c2ccc(O)cc2O)cc1` [Compound 3c, 2-[(4-Acetylphenyl)amino]-2-oxoethyl 2,4-dihydroxybenzoate], in series [1], the concentration for half-maximal inhibition (IC50) was found to be 145 ± 16.7 µM.

Molecule `CC(=O)c1ccc(NC(=O)COC(=O)c2ccc(O)c(O)c2)cc1` [Compound 3d, 2-[(4-Acetylphenyl)amino]-2-oxoethyl 3,4-dihydroxybenzoate] showed an IC50 in series [1] of 257 ± 23.4 µM.

Take `CC(=O)c1ccc(NC(=O)COC(=O)c2cc(O)cc(O)c2)cc1` [Compound 3e]: the melting point was in the range of 249 to 251 °C. The same molecule yielded a 50% inhibitory concentration (IC50) in series [1] of 166 ± 14.2 µM.

Take `CC(=O)c1ccc(NC(=O)COC(=O)C=Cc2ccccc2)cc1` [Compound 5a, 2-[(4-Acetylphenyl)amino]-2-oxoethyl cinnamate]: inhibition in series [1] was half-maximal at 63.5 ± 2.5 µM (IC50).

`CC(=O)c1ccc(NC(=O)COC(=O)/C=C/c2ccc(O)cc2)cc1` [Compound 5b, 2-[(4-Acetylphenyl)amino]-2-oxoethyl (E)-3-(4-hydroxyphenyl)acrylate]: the melting point lay in the range of 226 to 228 °C. The 50% inhibitory concentration (IC50) in series [1] came to 97.3 ± 5.8 µM.

Turning to `CC(=O)c1ccc(NC(=O)COC(=O)/C=C/c2ccc(O)cc2O)cc1` [Compound 5c, 2-[(4-Acetylphenyl)amino]-2-oxoethyl (E)-3-(2,4-dihydroxyphenyl)acrylate], the melting point fell in the range of 236 to 238 °C. In addition, the antimelanogenic activity entry in series [2] (B16F10, 12 µg/mL) was “produced antimelenogenic effects”. For the same molecule, the “cellular melanin content as compared to control normalized to 100%” value in series [2] (B16F10, 12 µg/ml, 24 h) is reported as 82%. Moreover, in series [3], the “type of inhibition (Lineweaver–Burk plot)” value is “competitive inhibitor”, the inhibitory constant (Ki) amounted to 0.01 µM and the “mode of binding (reversibility of enzyme–inhibitor complex)” value is “irreversibly bind; also recorded: irreversible mode of binding”. In addition, the “effect on cell viability (MTT)” value in series [4] (B16F10, 12 µg/ml) was “safe and no significant effect and nontoxic”. In addition, in series [4] (B16F10, 3, 6, 12 µg/ml), the “effect on cell morphology” value is on record as “no effect on cell morphology”. Also, the viability at 24 h, 24 µg/ml in series [5] was found to be 33.7%. In addition, the IC50 in series [1] (setting [6]) is 0.0089 ± 0.0004 µM.

As to `CC(=O)c1ccc(NC(=O)COC(=O)/C=C/c2ccc(Cl)cc2)cc1` [Compound 5d, 2-[(4-Acetylphenyl)amino]-2-oxoethyl-(E)-3-(4-chlorophenyl)acrylate], in series [3], the “type of inhibition (Lineweaver–Burk plot)” value is given as “mixed-type inhibitor”, the inhibition constant (Ki) worked out at 6 µM and the “mode of binding (reversibility of enzyme–inhibitor complex)” value is given as “irreversibly bind; also recorded: irreversible inhibitor; also recorded: irreversible mode of binding”. The IC50 in series [1] (setting [6]) came out at 8.26 ± 1.7 µM.
